Patent US7585519B2, “Esters of L-carnitine or alkanoyl L-carnitines useful as cationic lipids for the intracellular delivery of pharmacologically active compounds” (Sigma-Tau Industrie Farmaceutiche Riunite S.p.A., priority 1999, dated 2009)
Several values for one entry are separate records, joined by “and”; a condition that tells them apart may be missing. Identical values can stand only once.

What was measured:
[1] = tested on: murine pulmonary carcinoma M109
Procedure: To induce the tumour in vivo, unanaesthetised Balb/c mice received injections of 3×10^5 cells of murine pulmonary carcinoma M109 in 0.1 ml RPMI-1640 (Sigma) in the quadriceps femoris of the right rear paw.
Taxol (paclitaxel INDENA) used as a control was dissolved in the cremophor vehicle EL (BASF) at a concentration of 20 mg/mL and stored at +4° C. for the next 24 hours, protected against the light. At the time of use, it was diluted with phosphate-buffered saline solution (PBS, SIGMA) and injected intravenously in the same volume and concentration conditions as described for taxol transported by the ST 983 liposome.
The cremophor was prepared by diluting 1:1 with ethyl alcohol.
Administrations were given for seven consecutive days starting from day 10 after inoculation of the tumour. The animals were kept under observation up to day 17 post-inoculation and sacrificed by cervical dislocation, and their lungs were removed for determination of the number of metastases. Staining of the lungs to detect metastases was done by incubating the lungs for 10 days in 5 ml of Bouin's solution, consisting of 71% saturated picric acid solution, 4.8% glacial acetic acid (Merck), and 24% 10% formaldehyde (Fluka). At the end of the incubation period in Bouin's solution, the numbers of metastases were counted.
Statistical analysis of the data for the number of lung metastases was done using the Mann-Whitney non-parametric tests for unpaired data.

[2] = tested on: luciferase gene of pCMVluc plasmid in liver, lung and heart; assay: In-vivo plasmid DNA transfection test (luciferase activity in tissues); set-up: species or system Balb/c mice
Procedure: In the in-vivo experiments, both DOTAP and [2,3-(dioleoyl)propyl]trimethylammonium (DOTMA) were used as reference cationic lipids.
The molar ratios defined in the results refer to nmol concentrations of the respective cationic lipids per […] of DNA.
In the in-vivo transfection experiments, 25 μg of plasmid DNA per animal were used.
The plasmid pCMVluc used in these experiments contained the cDNA of the luciferase gene under the transcriptional control of the cytomegalovirus (CMV) promoter.
Protein luciferase activity in cells and tissues was determined using the Boehringer Mannheim kit (cat no. 1669 893).
The cells were washed 3 times in PBS and then removed from the plate with a scraper in lysis buffer (100 mM potassium phosphate pH 7.8. 1 mM dithiothreitol-DTT) and submitted to three consecutive cycles of freezing and thawing. After centrifuging in 1.5 mL Eppendorf tubes, the supernatant was used for the luminescence test not more than 5 hours after extraction of the proteins. Luminescence emission measurements were done using a luminometer at 562 nm. After a first freezing in liquid N2 followed by fine crushing to obtain a powder, the tissues were resuspended in lysis buffer and incubated for 10-15 min in ice.
The samples were then centrifuged in 2 ml Eppendorf tubes and the supernatant was tested for luciferase activity.
Both DOTAP and DOTMA were used as reference cationic lipids, the transfection capacity of which has been amply characterised and described by Abkenet et al., Proc. Natl. Acad. Sci. USA 1993, 90, 6518. In the in-vivo experiments, various different molar ratios of cationic lipids to plasmid DNA were analysed for the purposes of determining the activity of the cationic lipids and the respective most efficient concentrations for gene transfer. The transfection capability of the various liposomes was evaluated both in vitro and in vivo using the luciferase gene […] contained in the pCMVluc plasmid, the activity of which, in terms of relative luminescence units (RLU) (described previously) made for easy quantification.
In this experiment, the dependence of liver, lung and heart transfection efficiency on the ST 983 liposome:plasmid DNA molar ratio was evaluated. The following nmol ratios of liposome per μg DNA were tested: 12:1, 24:1, 36:1 and 48:1.
Groups of 6 Balb/c mice weighing approximately 20 g were treated intravenously with the above-mentioned amounts of liposome-DNA complex in 200 μl volumes of PBS and were sacrificed 24 hours after administration of the complex.

[3] = tested on: luciferase gene of pCMVluc plasmid in liver, lung and heart; assay: as above; set-up: species or system Balb/c mice; details: molar ratio 12:1
HeLa cells = details: liposome 9 μM, 2.5 μg plasmid DNA, versus DOTAP, FIGS. 1 and 2
Procedure: Liposome and plasmid DNA were suitably diluted separately in PBS. The DNA was then added to the liposome and the liposome-DNA complex was left for approximately 30 min at 4° C. to facilitate the formation of a stable liposome-DNA interaction.
In the in-vitro experiments, 1,2-dioleoyloxy-3-trimethyl-ammonium propane (DOTAP) was used as a reference cationic lipid; 2.5 μg of plasmid DNA were used per 2×10^5 HeLa cells, and the liposome concentration was 9 μM.
5 μg of the DNA extracted from the cells were preabsorbed on nylon filters (Boehringer) using the Biorad dot-blot appliance. The filters were then prehybridised for 4 hours at 65° C. with a solution containing 0.5 M of sodium pyrophosphate (NaPi), 1 mM EDTA, 7% SDS. […] The autoradiographic analysis was carried out with the aid of a phosphor imager which uses phosphor screens activated by beta-radiation which are read and quantified by means of a photomultiplier system in conjunction with an image analysis program. […]
As an alternative, the transfection efficiency of a number of cationic liposomes was evaluated by means of densitometric analysis (phosphor imager) of samples of DNA extracted from transfected cells preabsorbed on nitrocellulose filters (dot-blot) and hybridised with ^32P-labelled plasmid DNA markers, as described previously.

M109 cells = assay: In-vitro cytotoxicity test (sulforhodamine B, SRB); type: cell-based, murine; details: for optical density reading at 540 nm (Mean): Table 2.3; for optical density reading at 540 nm (single reading): Table 2.3, listed as DMSO-CPT 83
Procedure: The toxicity assays were done on HeLa and M109 cells in 96-well plates. On the day after plating, the cells were treated with the molecules being tested for the next 48 hours. The cells were then washed with PBS and left in normal growth conditions for 48 hours. After removal of the growth medium, the cells were incubated on ice with 16% TCA, washed 3 times in H2O, treated for 30 minutes with sulforhodamine B (SRB) in 1% acetic acid, washed 3 times in 1% acetic acid alone, incubated for 20 minutes in TRIS 10 mM pH 10.5 and, lastly, readings were taken at 540 nm. To evaluate the ability of the liposome to transport CPT 83 in vitro in M109 cells the sulforhodamine B test described above was used. In addition, the cytotoxicity of CPT 83 dissolved in dimethyl-sulphoxide (DMSO) was also evaluated as compared to that of the same molecule complexed with the ST 983 liposome. The liposome-CPT 83 complex was used in the cytotoxicity assays at the concentrations indicated in Tables 2.1, 2.2 and […] here below in both the SUV and MLV configurations. The liposome:CPT 83 molar ratio used was 40:1.

[4] = ST 983:DNA molar ratio 24:1, i.v., 24 hours
[5] = ST 983:DNA molar ratio 36:1, i.v., 24 hours
[6] = ST 983:DNA molar ratio 48:1, i.v., 24 hours
[7] = liposome:DNA molar ratio 12:1, i.v., 24 hours
[8] = liposome/DNA preincubation time 30 min.
[9] = liposome/DNA preincubation time 3 h

## CC(=O)O[C@H]1C(=O)[C@@]2(C)[C@H]([C@H](OC(=O)c3ccccc3)[C@]3(O)C[C@H](OC(=O)[C@H](O)[C@@H](NC(=O)c4ccccc4)c4ccccc4)C(C)=C1C3(C)C)[C@]1(OC(C)=O)CO[C@@H]1C[C@@H]2O [Taxol, paclitaxel]
[1]; M109, Balb/c mice, i.v.
  effect on pulmonary metastases compared to untreated control mice: no reducing effect on the number of pulmonary metastases
[1]; lung metastases at 17th day after M109 inoculation, BALB/c mice
  metastases size: S (S = small (<1 mm diameter))
[1]; lung metastases at 17th day after M109 inoculation, BALB/c mice, i.v. for seven consecutive days from day 10
  metastases Mean ± s.d: 22 ± 9

## CCCCCCCCCCCCCCCC(=O)O[C@H](CC(=O)OCCCCCCCCCCC)C[N+](C)(C)C.[Cl-] [ST 983, palmitoyl L-carnitine chloride undecyl ester]
[2]; [4]
  Mean RLU/mg protein ± s.d. Lung: 2257856 +/− 280480 RLU/mg protein
  Mean RLU/mg protein ± s.d. heart: 7091 +/− 249 RLU/mg protein
  Mean RLU/mg protein ± s.d. liver: 1310 +/− 385 RLU/mg protein
[2]; [5]
  Mean RLU/mg protein ± s.d. Lung: 301107 +/− 21503 RLU/mg protein
  Mean RLU/mg protein ± s.d. heart: 8351 +/− 477 RLU/mg protein
  Mean RLU/mg protein ± s.d. liver: 1035 +/− 347 RLU/mg protein
[2]; [6]
  Mean RLU/mg protein ± s.d. Lung: 112747 +/− 5655 RLU/mg protein
  Mean RLU/mg protein ± s.d. heart: 5251 +/− 489 RLU/mg protein
  Mean RLU/mg protein ± s.d. liver: 1571 +/− 156 RLU/mg protein
[2]; all molar ratios analysed
  share of the total luciferase extracted from lung, heart and liver located in the lungs: approximately 99%
[2]; liposome/DNA preincubation time 30 min., molar ratio 12:1
  Mean RLU/mg protein ± s.d. Lung: 874882 +/− 65917 RLU/mg protein
[2]; liposome/DNA preincubation time 3 h, molar ratio 12:1
  Mean RLU/mg protein ± s.d. liver: 2497 +/− 682 RLU/mg protein
[2]; [7]
  Mean RLU/mg protein ± s.d. Lung: 8818442 +/− 449529 RLU/mg protein
  Mean RLU/mg protein ± s.d. heart: 28875 +/− 2593 RLU/mg protein
  Mean RLU/mg protein ± s.d. liver: 2589 +/− 140 RLU/mg protein
[2]; lung, molar ratio 12:1
  in-vivo plasmid DNA transport efficiency compared with DOTMA: efficiency ratings higher than and/or comparable to those of DOTMA
[2]; molar ratio 12:1
  increase in luciferase activity in the lung and heart, 3 hours versus 30 minutes preincubation: approximately 5 fold
[3]; [8]
  Mean RLU/mg protein ± s.d. heart: 8118 +/− 263 RLU/mg protein
  Mean RLU/mg protein ± s.d. liver: 3526 +/− 260 RLU/mg protein
[3]; [9]
  Mean RLU/mg protein ± s.d. Lung: 4225656 +/− 211731 RLU/mg protein
  Mean RLU/mg protein ± s.d. heart: 37100 +/− 1853 RLU/mg protein

## ester of propionyl L-carnitine bromide with 2-hydroxy acetyl 1,3 dipalmitoyl glycerol [ST 772]
HeLa cells
  amounts of plasmid DNA in transfected cells (blot analysis): same order of magnitude as obtained with DOTAP

## CC[C@@]1(O)C(=O)OCc2c1cc1n(c2=O)Cc2c-1nc1ccccc1c2C#N [CPT 83, 7-carbonitrile camptothecin]
M109 cells; 0.0013 μM
  optical density reading at 540 nm (Mean): 0.8399
  optical density reading at 540 nm (single reading): 0.863 and 0.795 and 0.831 and 0.878 and 0.809 and 0.816 and 0.886 and 0.841
M109 cells; 0.013 μM
  optical density reading at 540 nm (Mean): 0.82
  optical density reading at 540 nm (single reading): 0.851 and 0.79 and 0.806 and 0.81 and 0.8 and 0.804 and 0.863 and 0.836
M109 cells; 0.13 μM
  optical density reading at 540 nm (Mean): 0.4446
  optical density reading at 540 nm (single reading): 0.474 and 0.467 and 0.429 and 0.421 and 0.406 and 0.407 and 0.57 and 0.383
M109 cells; 1.3 μM
  optical density reading at 540 nm (Mean): 0.309
  optical density reading at 540 nm (single reading): 0.318 and 0.317 and 0.328 and 0.305 and 0.33 and 0.302 and 0.285 and 0.287
M109 cells; 13 μM
  optical density reading at 540 nm (Mean): 0.2921
  optical density reading at 540 nm (single reading): 0.285 and 0.288 and 0.312 and 0.318 and 0.281 and 0.267 and 0.3 and 0.286
